Assay results taken from the CheMixHub viscosity set.
Where “and” joins values, the source holds several entries; their conditions need not be identical. Equal entries are not always repeated.

What was measured:
[1] = xn = mol fraction of the nth substance listed

CC(=O)OCc1ccccc1
Settings	viscosity [mPa·s]
323.15 K, 101.33 kPa	1.23

CC(C)C(=O)O
viscosity [mPa·s]
Settings	293.15 K	301.15 K	302.15 K	303.15 K	305.15 K	308.15 K	311.15 K	313.15 K	315.15 K
101 kPa	–	1.168	1.148	–	1.099	1.047	1.008	0.9841	0.9512
101.33 kPa	1.326	–	–	1.12	–	–	–	1.004	–

CCCCCCCCCC(=O)OC
100 kPa
Settings	viscosity [mPa·s]
293.15 K	2.115
298.15 K	1.919
303.15 K	1.745
318.15 K	1.345
323.15 K	1.243

CCCCCCCCCCCCCCCC
Settings	viscosity [mPa·s]
293.15 K, 100 kPa	3.408
293.15 K, 101 kPa	3.408
293.15 K, 102 kPa	3.48
293.2 K, 101.3 kPa	3.507
298.15 K, 101 kPa	3.002
303.15 K, 101 kPa	2.703
303.2 K, 101.3 kPa	2.78
308.15 K, 101.33 kPa	2.381
318.15 K, 100 kPa	1.996
318.15 K, 101 kPa	1.996
318.15 K, 101.33 kPa	1.92
318.16 K, 101 kPa	2.039
323.15 K, 102 kPa	1.85

CCCCCCCCCCCCCC[P+](CCCC)(CCCC)CCCC.CCCCCCCCCCCCc1ccccc1S(=O)(=O)[O-]
101 kPa
Settings	viscosity [mPa·s]
313.15 K	1480
323.15 K	750

CCCC[N+]1(C)CCCCC1.O=S(=O)([N-]S(=O)(=O)C(F)(F)F)C(F)(F)F
Settings	viscosity [mPa·s]
298.15 K, 101 kPa	178.5

CCOCCOCC
101.33 kPa
Settings	viscosity [mPa·s]
298.15 K	0.602
308.15 K	0.522

CC[n+]1ccn(C)c1.COS(=O)(=O)[O-]
101 kPa
Settings	viscosity
293.15 K	84.14 mPa·s
298.15 K	84.3 mPa·s and 68.5 mPa·s
303.15 K	68.7 mPa·s and 55.4 mPa·s and 57.93 mPa·s
308.15 K	56.7 mPa·s and 45.5 mPa·s
313.15 K	47.6 mPa·s and 37.9 mPa·s and 39.54 mPa·s
323.15 K	28.33 mPa·s

CCn1cc[n+](C)c1.C[C@H](N)C(=O)[O-]
101 kPa
Settings	viscosity [mPa·s]
308.15 K	137.5
313.15 K	103.5

ClC(Cl)Cl
Settings	viscosity
293.15 K, 101.33 kPa	0.5659 mPa·s
293.16 K, 101 kPa	0.563 mPa·s
298 K, 101 kPa	0.5427 mPa·s
298 K, 101.33 kPa	0.538 mPa·s
298.16 K, 101 kPa	0.542 mPa·s
303 K, 101.3 kPa	0.5254 mPa·s and 0.5249 mPa·s
303 K, 101.33 kPa	0.517 mPa·s
303.15 K, 101.3 kPa	0.5129 mPa·s and 0.5129 mPa·s and 0.5033 mPa·s
303.15 K, 101.33 kPa	0.514 mPa·s and 0.471 mPa·s
303.16 K, 101 kPa	0.514 mPa·s
303.75 K, 101 kPa	0.5393 mPa·s
308 K, 101 kPa	0.4881 mPa·s
308.15 K, 101 kPa	0.482 mPa·s
308.15 K, 101.33 kPa	0.452 mPa·s and 0.5065 mPa·s and 0.485 mPa·s
311 K, 101.3 kPa	0.4893 mPa·s and 0.4893 mPa·s
313 K, 101.33 kPa	0.479 mPa·s
313.15 K, 101 kPa	0.472 mPa·s and 0.4891 mPa·s and 0.557 mPa·s
318 K, 101 kPa	0.4487 mPa·s
318.15 K, 101.33 kPa	0.442 mPa·s
319 K, 101.3 kPa	0.4566 mPa·s and 0.4571 mPa·s
323 K, 101.33 kPa	0.447 mPa·s
323.15 K, 101 kPa	0.491 mPa·s
323.15 K, 101.33 kPa	0.4473 mPa·s

FC(F)Cl
101 kPa
Settings	viscosity [mPa·s]
293.25 K	0.1758
313.35 K	0.1381

O=C(O)CCl
Settings	viscosity [mPa·s]
323.15 K, 101 kPa	3.091

O=CC(Cl)(Cl)Cl
viscosity
Settings	298.15 K	308.15 K	313.15 K	318.15 K	323.15 K
101 kPa	1.055 mPa·s and 1.055 mPa·s (2×)	0.9017 mPa·s	1.009 mPa·s and 0.8411 mPa·s	0.934 mPa·s	0.764 mPa·s and 0.7641 mPa·s and 0.869 mPa·s
101.33 kPa	1.055 mPa·s	–	–	–	0.7641 mPa·s

OCC(F)(F)C(F)(F)F
100 kPa
Settings	viscosity [mPa·s]
298.15 K	3.367
323.15 K	1.518

CC(=O)OCc1ccccc1 + Cc1ccc(C)cc1
viscosity [mPa·s], [1], 101 kPa
Settings	x1 = 0.0917	x1 = 0.1773	x1 = 0.2764	x1 = 0.3701	x1 = 0.4679	x1 = 0.5689	x1 = 0.6717	x1 = 0.7678	x1 = 0.8698	x1 = 0.9473
303.15 K	0.602	0.645	0.716	0.792	0.891	1.005	1.134	1.267	1.421	1.549
313.15 K	0.537	0.571	0.624	0.681	0.76	0.85	0.937	1.036	1.179	1.273

ClC(Cl)Cl + Cc1ccc(C)cc1
[1], 298.15 K, 101 kPa
Settings	viscosity [mPa·s]
x1 = 0.4429	0.6167
x1 = 0.5074	0.6102
x1 = 0.5571	0.6084
x1 = 0.5997	0.6031
x1 = 0.6505	0.6003
x1 = 0.6897	0.5954
x1 = 0.7351	0.5903

CC(=O)OCc1ccccc1 + Cc1cccc(C)c1
viscosity [mPa·s], [1], 101 kPa
Settings	x1 = 0.0925	x1 = 0.1766	x1 = 0.2746	x1 = 0.3691	x1 = 0.4674	x1 = 0.5665	x1 = 0.6703	x1 = 0.7681	x1 = 0.8773	x1 = 0.9356
303.15 K	0.593	0.638	0.712	0.79	0.884	0.996	1.125	1.257	1.436	1.535
313.15 K	0.528	0.576	0.634	0.679	0.751	0.837	0.942	1.05	1.177	1.245

CC(=O)OCc1ccccc1 + Cc1cccc(O)c1
[1], 313.15 K, 101.33 kPa
Settings	viscosity [mPa·s]
x1 = 0.115	5.114
x1 = 0.272	3.917
x1 = 0.435	3.06
x1 = 0.62	2.337
x1 = 0.81	1.765

ClC(Cl)Cl + Cc1ccccc1
[1], 298.15 K
Settings	viscosity [mPa·s]
101 kPa, x1 = 0.1361	0.5653
101 kPa, x1 = 0.2872	0.5753
101 kPa, x1 = 0.4067	0.5833
101 kPa, x1 = 0.554	0.5861
101 kPa, x1 = 0.6211	0.584
101 kPa, x1 = 0.6656	0.58
101 kPa, x1 = 0.8806	0.5593
101.33 kPa, x1 = 0.0912	0.5573
101.33 kPa, x1 = 0.1727	0.5608
101.33 kPa, x1 = 0.2562	0.5636
101.33 kPa, x1 = 0.3481	0.5661
101.33 kPa, x1 = 0.5471	0.5687
101.33 kPa, x1 = 0.6862	0.5638
101.33 kPa, x1 = 0.8428	0.5531
101.33 kPa, x1 = 0.9237	0.545

CC(=O)OCc1ccccc1 + Cc1ccccc1C
viscosity [mPa·s], [1], 101 kPa
Settings	x1 = 0.0897	x1 = 0.1695	x1 = 0.2706	x1 = 0.3684	x1 = 0.4671	x1 = 0.562	x1 = 0.6623	x1 = 0.7598	x1 = 0.8617	x1 = 0.9299
303.15 K	0.751	0.802	0.873	0.957	1.047	1.142	1.252	1.361	1.478	1.563
313.15 K	0.671	0.72	0.783	0.845	0.909	0.976	1.054	1.135	1.224	1.285

O=[N+]([O-])[O-].[Na+] + N
[1], 293.15 K, 101 kPa
Settings	viscosity [mPa·s]
x1 = 0.02	0.182
x1 = 0.039	0.225
x1 = 0.081	0.374

Cc1ccc(S(=O)(=O)[O-])cc1.O=C1CCC[NH+]1C1CCCCC1 + O
viscosity [mPa·s], [1], 101 kPa
Settings	x1 = 0.002718	x1 = 0.008026	x1 = 0.01073
298.15 K	1.035	–	1.485
303.15 K	–	1.165	–

NCCCC(=O)O + O
viscosity, [1], 100 kPa
Settings	x1 = 0.0004	x1 = 0.0007	x1 = 0.0008999	x1 = 0.001	x1 = 0.0018	x1 = 0.002695	x1 = 0.004484	x1 = 0.006266	x1 = 0.008927
298.15 K	–	–	0.905 mPa·s	–	–	0.935 mPa·s	0.963 mPa·s	0.991 mPa·s	1.03 mPa·s
308.15 K	0.723 mPa·s	0.728 mPa·s	0.732 mPa·s	0.731 mPa·s and 0.735 mPa·s	0.742 mPa·s	0.76 mPa·s	–	0.814 mPa·s	0.852 mPa·s
313.15 K	0.655 mPa·s	0.66 mPa·s	–	0.662 mPa·s and 0.666 mPa·s	0.672 mPa·s	–	–	–	–
318.15 K	0.599 mPa·s	0.603 mPa·s	0.605 mPa·s	0.605 mPa·s and 0.609 mPa·s	0.614 mPa·s	0.623 mPa·s	0.64 mPa·s	0.658 mPa·s	0.684 mPa·s
